# Values quoted from earlier work in patent US6485659B1, “Electrical apparatus with dielectric fluid blend of polyalphaolefins and polyol esters or triglycerides” (priority 1995, dated 2002).
# Where two headings read alike, the source gives them in different places.
# Experiments:
# [1] = within 7 days; Nippon
# rats [2] = conditions: rat, in vivo
# rats [3] = conditions: for chronic toxicity findings: rat, in vivo, po
substance,measurement,setting,value
phenyl-ortho-tolyl-ethane [POXE],biodegradation,[1],100% biodegradation within 7 days (Nippon)
same,LD50 in rats,rats [2],"2.3 ml/kg (Dielectrol III, Saperstein and Faeder article)"
same,chronic toxicity findings,rats [3],"showed lower weight gain, and liver/kidney enlargement (Dielectrol - Saperstein and Faeder.)"
same,chronic toxicity findings,rats [3]; 146 mg/kg/day,<146 mg/kg/day showed little to no effects. (Nippon Oil/Saperstein and Faeder)
same,mortality,"rats [3]; rats, oral, 0.58 ml/kg/day for 1 month, Dielectrol, Saperstein and Faeder","In rats, 0.58 ml/kg/day for 1 month yielded 50% mortality. 0.146 ml/kg/day for 3-6 months"
